Measured values published in patent US20220144812A1, “QUINOLINE DERIVATIVES AND THEIR USE FOR THE TREATMENT OF CANCER” (Epizyme, Inc., priority 2019, published 2022).
Read-outs that look alike come from different tables or passages of the source.

Key:
[1] = test system: 647V cells; assay: High throughput proliferation (HTP) assay; format: cell-based; settings: high throughput proliferation, read-out: CREBBP HTP IC50
Source text: The following example describes methods and materials relating to a high throughput proliferation (HTP) assay. IC50 values (micromolar) are summarized in Table 1, Table 2, and Table 3 under the column labeled: “CREBBP HTP IC50 (micromolar).”
MATERIALS: 647V cell line, Dulbecco's MEM, penicillin-streptomycin, heat inactivated fetal bovine serum, D-PBS, and CellTiter-Glo were commercially available.
647V adherent cells were maintained in complete growth medium (Dulbecco's MEM supplemented with 15% v/v heat inactivated fetal bovine serum) and cultured at 37° C. under 5% CO2.
METHOD: Measurement of the effect of compound in High Throughput Proliferation (HTP) assays was performed as follows: Exponentially growing 647V cells were plated, in triplicate, in 384-well plates at the appropriate cell density in a final volume of 50 μl. Cells were incubated in the presence of increasing concentrations of compound. Viable cell number was determined at day 7 by addition of 35 μl CellTiter-Glo to each well of the plate, incubated in the dark for 30 minutes, and read on a PerkinElmer EnVision instrument to enumerate the number of cells.

[2] = target: T1, CREBBP (1084-1701) (Homo sapiens, UniProt Q92793); assay: Biochemical assay for CREBBP (1084-1701), SAMDI; settings: SAMDI, read-out: CREBBP Biochemistry IC50
T1 construct: measured in the following biochemical assay using CREBBP (1084-1701); purchased
T1 sequence (Q92793 1084-1701): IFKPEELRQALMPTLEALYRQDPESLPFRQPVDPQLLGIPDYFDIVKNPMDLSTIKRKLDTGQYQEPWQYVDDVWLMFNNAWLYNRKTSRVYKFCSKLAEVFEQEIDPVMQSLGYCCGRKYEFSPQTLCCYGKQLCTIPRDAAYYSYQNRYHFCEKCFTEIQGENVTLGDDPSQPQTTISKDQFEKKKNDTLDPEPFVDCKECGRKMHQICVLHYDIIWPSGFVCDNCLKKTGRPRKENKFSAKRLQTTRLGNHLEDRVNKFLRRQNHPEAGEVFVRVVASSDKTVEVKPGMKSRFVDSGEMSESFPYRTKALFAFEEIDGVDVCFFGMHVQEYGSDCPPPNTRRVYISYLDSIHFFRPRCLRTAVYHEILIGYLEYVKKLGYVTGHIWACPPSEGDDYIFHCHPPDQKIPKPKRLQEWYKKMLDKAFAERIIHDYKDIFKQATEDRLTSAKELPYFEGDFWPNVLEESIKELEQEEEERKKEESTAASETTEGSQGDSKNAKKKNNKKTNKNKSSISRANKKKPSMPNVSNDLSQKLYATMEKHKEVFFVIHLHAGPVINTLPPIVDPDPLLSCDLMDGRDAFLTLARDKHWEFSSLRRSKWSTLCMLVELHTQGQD
Procedure, shortened: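 CREBBP (1084-1701) preincubated with compound 30 min at RT, then substrate mix (biotin-H3 11-25 K14R/K23R peptide, acetyl-CoA) added for 30 min at RT. Reaction stopped with formic acid, neutralised with sodium bicarbonate. Peptide acetylation read by SAMDI mass spectrometry to derive IC50.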

[3] = test system: H3K18Ac in HB-CLS-2 cells; assay: H3K18AC in-cell western (ICW) assay; format: cell-based; settings: H3K18Ac in-cell western, read-out: CREBBP ICW IC50
Procedure, shortened: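 HB-CLS-2 cells seeded 16–24 hours before 2 hr compound treatment at 37° C, 5% CO2, then methanol-fixed. H3K18Ac detected with rabbit monoclonal primary (overnight, 4° C) and 800CW anti-rabbit secondary; DRAQ5 stained DNA. Plates imaged at 700 and 800 nm for integrated intensity; IC50 in μM.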

[4] = target: T2, EP300 (P300(1048-1664)) (Homo sapiens, UniProt Q09472); assay: Biochemical assay for EP300, SAMDI; settings: EP300, SAMDI; read-out: EP300 Biochemistry IC50
T2 construct: P300(1048-1664)
T2 sequence (Q09472 1048-1664): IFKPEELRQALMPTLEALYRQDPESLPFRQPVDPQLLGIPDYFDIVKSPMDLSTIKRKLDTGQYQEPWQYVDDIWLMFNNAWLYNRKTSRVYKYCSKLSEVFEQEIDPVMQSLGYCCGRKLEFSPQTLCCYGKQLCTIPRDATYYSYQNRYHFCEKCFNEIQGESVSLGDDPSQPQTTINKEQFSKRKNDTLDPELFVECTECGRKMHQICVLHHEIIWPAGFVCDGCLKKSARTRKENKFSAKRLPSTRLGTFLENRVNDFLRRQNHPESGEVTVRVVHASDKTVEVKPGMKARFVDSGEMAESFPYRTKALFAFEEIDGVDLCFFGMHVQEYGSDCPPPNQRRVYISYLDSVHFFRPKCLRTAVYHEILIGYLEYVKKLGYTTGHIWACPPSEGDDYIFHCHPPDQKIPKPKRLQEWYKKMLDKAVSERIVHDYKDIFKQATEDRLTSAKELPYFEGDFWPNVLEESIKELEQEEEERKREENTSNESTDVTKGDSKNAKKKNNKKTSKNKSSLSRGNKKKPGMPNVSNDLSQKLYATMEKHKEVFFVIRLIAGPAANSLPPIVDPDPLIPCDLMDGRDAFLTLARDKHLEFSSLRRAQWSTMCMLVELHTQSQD
Source text: The following example describes materials and methods relating to a biochemical assay for EP300. IC50 values (micromolar (μM)) are summarized in Table 1, Table 2, and Table 3 under the column labeled: “EP300 Biochemistry IC50 (micromolar).”

[5] = Homo sapiens, 647-V, 647V cells

| IC50 [2] [nM] | IC50 [3] [nM] | IC50 [4] [nM] | IC50 ([3]; HB-CLS-2 cells) [nM] | Structure (SMILES) | IC50 ([1]; Homo sapiens, 647-V) [nM] | IC50 [1] [nM] | IC50 [1, 5] [nM] | IC50 ([1]; 647V cells) [nM] |
| --- | --- | --- | --- | --- | --- | --- | --- | --- |
| 28.5 | 64.8 | 11.4 |  | CCn1ncc(CN(C)C(=O)c2cc(-c3ccc(NCC(O)CN(C)C)c(C)n3)nc3ccc(Cl)cc23)c1C (stereo not shown) [Compound 604] | 28.4 |  |  |  |
| 29.5 | 202 | 71.5 |  | CCn1ncc(CN(C)C(=O)c2nc(-c3cc4c(N)noc4cc3C)nc3ccc(Cl)cc23)c1C [Compound 466] | 189 |  |  |  |
| 353 | 1200 | 114 |  | CCn1ncc(CN(C)C(=O)c2nc(-c3cc4c(NC(C)=O)n[nH]c4cc3C)nc3ccc(Cl)cc23)c1C [Compound 455] | 547 |  |  |  |
| ≥ 50000 | 20000 | ≥ 50000 |  | CCn1ncc(CN(C)C(=O)c2nc(-c3cnnc(C(=O)NC)c3)nc3ccc(Cl)cc23)c1C [Compound 443] | 20000 |  |  |  |
| 17000 | 14000 | 7800 |  | CCn1ncc(CN(C)C(=O)c2nc(-c3ccc(OCCO)cn3)nc3ccc(Cl)cc23)c1C [Compound 173] | 11000 |  |  |  |
|  |  | 8000 |  | CCn1ncc(CN(C)C(=O)c2cc(-c3cnn[nH]3)nc3ccc(Cl)cc23)c1C [Compound 307] |  |  |  |  |
| 67 | 1100 | 66 |  | CCn1ncc(CN(C)C(=O)c2nc(-c3cc(C)cc(NC4CCOCC4)c3)nc3ccc(Cl)cc23)c1C [Compound 78] | 1200 |  |  |  |
|  |  | 180 | 400 | CCn1ncc(CN(C)C(=O)c2nc(-c3ccc(OCCNC(=O)C(C)C)c(Cl)c3)nc3ccc(Cl)cc23)c1C [Compound 416] |  |  | 400 |  |
|  |  | 13000 | 20000 | Cc1c(CN(C)C(=O)c2nc(-c3cc(Cl)cc(CNC4CCCCC4)c3)nc3ccc(Cl)cc23)cnn1CO [Compound 236] |  |  |  |  |
| 2000 | 4700 |  |  | CCn1ncc(CN(C)C(=O)c2nc(-c3cccc(Cl)c3)nc3ccccc23)c1C [Compound 130] | 6500 |  |  |  |
|  |  | 41000 | 20000 | CCn1ncc(CN(C)C(=O)c2nc(-c3cc(C(=O)NC)on3)nc3ccc(Cl)cc23)c1C [Compound 215] |  |  |  |  |
| 310 | 4900 |  |  | Cc1c(CN(C)C(=O)c2cc(-c3cccc(Cl)c3)nc3ccc(Cl)cc23)cnn1C(C)C [Compound 132] | 2200 |  |  |  |
| 710 | 1300 |  |  | CCn1ncc(CN(C)C(=O)c2cc(-c3ccccc3F)nc3ccc(Cl)cc23)c1C [Compound 86] | 1400 |  |  |  |
| 310 | 1700 |  |  | CCn1ncc(CN(C)C(=O)c2cc(-c3ccccn3)nc3ccc(Cl)cc23)c1C [Compound 92] | 410 |  |  |  |
|  |  | 140000 | 20000 | CCn1ncc(CN(C)C(=O)c2nc(-c3cn(CCNC)cn3)nc3ccc(Cl)cc23)c1C [Compound 228] |  |  | 20000 |  |
| 1800 | 1200 |  |  | CCn1ncc(CN(C)C(=O)c2cc(-c3ccccc3C#N)nc3ccc(Cl)cc23)c1C [Compound 81] | 2200 |  |  |  |

| IC50 [2] [nM] | IC50 [3] [nM] | IC50 [4] [nM] | IC50 ([3]; HB-CLS-2 cells) [nM] | Structure (SMILES) | IC50 ([1]; Homo sapiens, 647-V) [nM] | IC50 [1] [nM] | IC50 [1, 5] [nM] | IC50 ([1]; 647V cells) [nM] |
| --- | --- | --- | --- | --- | --- | --- | --- | --- |
| 13000 |  |  | 15000 | CCn1ncc(CN(C)C(=O)c2nc(-c3ccccc3Cl)nc3ccccc23)c1C [Compound 284] |  |  | 8500 |  |
| 190000 |  | 126000 | 20000 | CCn1ncc(CN(C)C(=O)c2nc(-c3cccc(Cl)c3)nc3cc(N4CCOCC4)c(Cl)cc23)c1C [Compound 200] |  |  |  |  |
|  | 20000 | 103000 |  | CCn1ncc(CN(C)C(=O)c2nc(N3CCn4ncnc4C3)nc3ccc(Cl)cc23)c1C [Compound 190] | 20000 |  |  |  |
| 9.4 | 920 |  |  | CCn1ncc(CN(C)C(=O)c2nc(-c3cccc(Cl)c3)nc3ccc(Cl)cc23)c1C [Compound 71] | 1200 |  |  |  |
| 250 | 520 |  |  | CCn1ncc(CN(C)C(=O)c2nc(-c3ccc4c[nH]nc4c3Cl)nc3ccc(COC)cc23)c1C [Compound 52] | 690 |  |  |  |
| 250 | 800 |  |  | CCn1ncc(CN(C)C(=O)c2nc(-c3ccc4c[nH]nc4c3Cl)nc3ccc(COC)cc23)c1C [Compound 68] |  | 690 |  |  |
| 310 | 2400 |  |  | CCn1ncc(CN(C)C(=O)c2cc(-c3cccc(Cl)c3)nc3ccc(Cl)cc23)c1C [Compound 106] | 2600 |  |  |  |
| 28 | 230 |  |  | CCn1ncc(CN(C)C(=O)c2nc(-c3ccc(OCCCNC)c(C)c3)nc3ccc(Cl)cc23)c1C [Compound 29] | 100 |  |  |  |
| 149 | 341 | 72 |  | CCn1ncc(CN(C)C(=O)c2nc(-c3cc(C(=O)NC)n(C)n3)nc3ccc(COC)cc23)c1C [Compound 630] |  |  |  |  |
| 5300 | 15000 |  |  | CCN(Cc1cnn(CC)c1C)C(=O)c1cc(-c2cccc(Cl)c2)nc2ccc(Cl)cc12 [Compound 175] | 9400 |  |  |  |
| 52 | 300 |  |  | CCn1ncc(CN(C)C(=O)c2nc(-c3ccc(OCCCNC)c(C)c3)nc3ccc(Cl)cc23)c1C [Compound 36] |  | 180 |  |  |
|  |  | 130 | 250 | CCn1ncc(CN(C)C(=O)c2nc(-c3cc(C)c4cn[nH]c4c3)nc3ccc(Cl)cc23)c1C [Compound 412] |  |  | 150 |  |
|  |  | 157000 | 20000 | CCn1ncc(CN(C)C(=O)c2nc(-c3cn(CCCNC)cn3)nc3ccc(Cl)cc23)c1C [Compound 247] |  |  | 20000 |  |
|  |  | 114000 | 20000 | Cc1n[nH]c(C)c1CN(C)C(=O)c1nc(-c2cccc(Cl)c2)nc2ccc(Cl)cc12 [Compound 248] |  |  | 19000 |  |
|  |  | 175000 | 20000 | CCn1ncc(CN(C)C(=O)c2nc(N3CCNCC3)nc3ccc(Cl)cc23)c1C [Compound 202] |  |  |  |  |

| Structure (SMILES) | IC50 [2] [nM] | IC50 [3] [nM] | IC50 [4] [nM] | IC50 ([3]; HB-CLS-2 cells) [nM] | IC50 ([1]; Homo sapiens, 647-V) [nM] | IC50 [1] [nM] | IC50 [1, 5] [nM] | IC50 ([1]; 647V cells) [nM] |
| --- | --- | --- | --- | --- | --- | --- | --- | --- |
| CCn1ncc(CN(C)C(=O)c2cc(-c3csc(C)n3)nc3ccc(Cl)cc23)c1C [Compound 90] | 340 | 1600 | 210 |  |  | 1500 |  |  |
| CCn1ncc(CN(C)C(=O)c2nc(-c3cc(C(=O)NC)nn3C)nc3ccc(P(C)(C)=O)cc23)c1C [Compound 393] | 50000 |  | 50000 |  |  |  |  | 8600 |
| CCn1ncc(CN(C)C(=O)c2nc(-c3cncn3C)nc3ccc(Cl)cc23)c1C [Compound 158] | 14000 | 9800 |  |  |  | 6600 |  |  |
| CCn1ncc(CN(C)C(=O)c2nc(-c3cnc(CNC(C)=O)n3C)nc3ccc(Cl)cc23)c1C [Compound 237] |  |  | 50000 |  |  |  |  |  |
| CCn1ncc(CN(C)C(=O)c2cc(-c3cc(C)nc(C)n3)nc3ccc(Cl)cc23)c1C [Compound 411] | 50000 |  | 50000 |  |  |  |  |  |
| CCn1ncc(CN(C)C(=O)c2nc(-c3ccccc3Cl)nc3c(C#N)cccc23)c1C [Compound 211] | 32000 |  | 17000 |  |  |  |  | 15000 |
| CCn1ncc(CN(C)C(=O)c2nc(-c3ccn(CCCN4CCCC4)n3)nc3ccc(Cl)cc23)c1C [Compound 184] |  |  | 163000 |  |  | 15000 |  |  |
| CCn1ncc(CN(C)C(=O)c2nc(-c3ccc(OCCCN(C)C(=O)OC(C)(C)C)c(C)c3)nc3ccc(Cl)cc23)c1C [Compound 183] | 18000 |  | 42000 |  |  | 8700 |  |  |
